Key:
Format in all cases: in vivo, human
[1] = test system: patients with PFIC; experiment: PEDFIC 2 open-label phase 3 extension trial, interim analysis: efficacy; details: for mean change from baseline in sBAs through PEDFIC 2 week 12: odevixibat naive at PEDFIC 2 baseline
Description: After treatment in the first trial (Example 1), patients were eligible to enroll in a second trial, a 72-week open-label extension trial. In this ongoing 72-week open-label extension trial, PFIC patients were treated with odevixibat 120 μg/kg/day. The 69 patients (PFIC1 (26%), PFIC2 (65%) or PFIC3 (7%)) treated with 120 μg/kg/day for up to 48 weeks experienced a durable effect on serum bile acids reduction and improvement in growth velocity based on review of z scores for height, weight and BMI, and improvement in ALT, AST and total bilirubin. The effects were maintained for patients treated for 18 months or longer. The example details the interim analysis through 24 weeks of treatment.
Study Design • This phase 3 study included a screening period (for newly enrolled patients [i.e., cohort 2] only) and a 72-week treatment period (FIG. 9) in which all patients received oral, once-daily odevixibat 120 μg/kg. • Patients returned to the clinic 4 and 12 weeks after the first dose of odevixibat and then approximately every 10 to 12 weeks thereafter. • Following the 72-week treatment period, patients either enrolled in an optional extension for continued treatment or returned for a follow-up visit 4 weeks after ending study drug. Outcomes, Assessments, and Statistical Analysis • The primary efficacy outcomes were to assess the effects of odevixibat on sBAs and pruritus, including mean changes and proportion of patients meeting response criteria. • sBA responders were defined as patients who achieved a normalization of sBAs or reduction of ≥70%. • Pruritus responders were defined as patients who achieved a ≥1-point drop on the pruritus assessment. • Secondary outcomes included characterizing the long-term safety and tolerability of odevixibat, as well as the effects of odevixibat on growth, biliary diversion and/or liver transplantation, and markers of cholestasis and liver disease. • For the P1O and PIP groups, there were 2 baselines (PEDFIC 1 baseline and PEDFIC 2 baseline); for those in cohort 2, baseline refers to the value prior to initiation of odevixibat in PEDFIC 2. • This interim analysis focuses on data collected after 24 weeks of treatment in PEDFIC 2. • T tests were used to calculate P values for primary outcomes in the P1O group only; other outcomes were summarized descriptively.

[2] = test system: patients with PFIC with prior PEBD surgery; experiment: PEDFIC 1/2 post hoc subgroup: patients with prior partial external biliary diversion (PEBD); design: key: Y: sBAs reduced ≥70% or levels ≤70 μmol/L at last assesment; N, no; details: Patient 10 (prior PEBD, PFIC2; PEDFIC 2 only, 120 μg/kg/d; 35 weeks exposure)
Description: (§1) One surgical treatment option for patients with PFIC is partial external biliary diversion (PEBD), which can be used to reduce bile acid levels in patients with medically refractory pruritus. However, PEBD is not successful in all patients. […] This post hoc subgroup analysis evaluated the safety and efficacy of odevixibat in patients enrolled in the PEDFIC studies who had PEBD surgery prior to study entry.
(§2) In the double-blind PEDFIC 1 study, children with PFIC1 or PFIC2 were randomized to placebo or 40 or 120 μg/kg/day odevixibat for 24 weeks. In PEDFIC 2, an ongoing, open-label extension study, patients from PEDFIC 1 or newly enrolled patients with any PFIC subtype receive odevixibat 120 μg/kg/day. In both PEDFIC 1 and PEDFIC 2, eligible patients had elevated sBAs and significant pruritus at screening. Changes over time in sBA levels and observer-reported pruritus (range: 0-4; higher scores indicate worse symptoms), sleep parameters, and quality of life (QoL; assessed with the Pediatric Quality of Life Inventory [PedsQL]) were evaluated in the subgroup of patients from PEDFIC 1 and/or PEDFIC 2 with a medical history of PEBD surgery performed prior to study enrollment.

[3] = test system: patients with PFIC with prior PEBD surgery; experiment: as above; design: key: Y: sBAs ≤70 μmol/L or reduced ≥70% at last assessment; N, no
Description: as §1, §2

[4] = Cohort 2, through week 24 of PEDFIC 2, n 4
[5] = P1O, through week 24 of PEDFIC 2, n 21
[6] = P1P, through week 24 of PEDFIC 2, n 9

With `CCCCC1(CCCC)CN(c2ccccc2)c2cc(SC)c(OCC(=O)N[C@@H](C(=O)N[C@@H](CC)C(=O)O)c3ccc(O)cc3)cc2S(=O)(=O)N1` [Odevixibat, 1,1-dioxo-3,3-dibutyl-5-phenyl-7-methylthio-8-(N-{(R)-α-[N-((S)-1-carboxypropyl)carbamoyl]-4-hydroxybenzyl}carbamoylmethoxy)-2,3,4,5-tetrahydro-1,2,5-benzothiadiazepine] the “PELD/MELD, Mean Change From Baseline (SE)” value ([1]; Cohort 2, through week 24 of PEDFIC 2, n 2) was 1.7 (5.8), the “APRI, Mean Change From Baseline (SE)” value [1, 4] was 0.1 (0.2) and the “Serum ALT, Mean Change From Baseline (SE)” value [1, 4] was −9.8 (31.1) U/L. The “Serum AST, Mean Change From Baseline (SE)” value [1, 4] was −7.8 (16.2) U/L, the “Total bilirubin, Mean Change From Baseline (SE)” value [1, 4] was −0.2 (0.5) mg/dL and the “mean sBAs at PEDFIC 2 week 24” value ([1]; P1O group, ~48 weeks cumulative odevixibat exposure, PEDFIC 1 baseline 251.8) was 85.1 µmol/L. The “mean monthly pruritus score at PEDFIC 2 week 24” value ([1]; P1O group, PEDFIC 1 baseline 3.0) was 1.4, the “mean height Z score at week 24 of PEDFIC 2” value ([1]; P1O group, PEDFIC 1 baseline −1.6) was −0.5 and the “mean weight Z score after 48 weeks” value ([1]; P1O group, baseline −0.9) was 0.2. The “PELD/MELD, Mean Change From Baseline (SE)” value ([1]; P1O, through week 24 of PEDFIC 2, n 17) was −0.2 (0.3), the “APRI, Mean Change From Baseline (SE)” value ([1]; P1O, through week 24 of PEDFIC 2, n 18) was −0.0 (0.1) and the “Serum AST, Mean Change From Baseline (SE)” value ([1]; P1O, through week 24 of PEDFIC 2, n 20) was −14.6 (10.0) U/L. For the same molecule, the “Serum ALT, Mean Change From Baseline (SE)” value [1, 5] was −26.9 (22.6) U/L, the “Total bilirubin, Mean Change From Baseline (SE)” value [1, 5] was −0.2 (0.1) mg/dL and the “mean sBAs over the course of PEDFIC 2” value ([1]; P1P group (placebo in PEDFIC 1), 120 μg/kg/day, PEDFIC 2 baseline 270.8) was 155.6 µmol/L. The “APRI, Mean Change From Baseline (SE)” value [1, 6] was 0.1 (0.1), the “PELD/MELD, Mean Change From Baseline (SE)” value [1, 6] was −1.4 (1.2) and the “Serum ALT, Mean Change From Baseline (SE)” value [1, 6] was 16.3 (20.7) U/L. For the same molecule, the “Serum AST, Mean Change From Baseline (SE)” value [1, 6] was −1.7 (5.6) U/L, the “Total bilirubin, Mean Change From Baseline (SE)” value [1, 6] was −1.6 (1.3) mg/dL and the “patients who underwent surgical biliary diversion or had a liver transplant” value ([1]; PEDFIC 1 baseline through week 24 of PEDFIC 2, 2 patients) was 3%. The “change in mean sBAs from baseline to week 12 of PEDFIC 2” value ([1]; cohort 2 (newly enrolled), 120 μg/kg/day) was -73.1 µmol/L, the “mean sBAs at week 12 of PEDFIC 2” value ([1]; cohort 2 (newly enrolled), 120 μg/kg/day, baseline 221.5) was 157.0 µmol/L and the “mean change from baseline in sBAs through PEDFIC 2 week 12” value ([1]; PFIC1, n=5) was −31.7. The “mean change from baseline in sBAs through PEDFIC 2 week 12” value ([1]; PFIC2, n=17) was −120.8, the “mean change from baseline in sBAs through PEDFIC 2 week 12” value ([1]; PFIC3, n=3) was −107.5 and the “average sBAs relative to published threshold for PFIC2 disease modification” value ([1]; patients treated for 48 weeks) was “fell below the published threshold for PFIC2 disease modification”. The “sBA Responder?” value [2] was “Y”, the “sBA Responder?” value ([3]; Patient 1 (prior PEBD, PFIC2; PEDFIC 1 placebo, PEDFIC 2 120 μg/kg/d; 42 weeks exposure)) was “N” and the “sBA Responder?” value ([3]; Patient 2 (prior PEBD, PFIC1; PEDFIC 1 placebo, PEDFIC 2 120 μg/kg/d; 35 weeks exposure)) was “N”. For the same molecule, the “sBA Responder?” value ([3]; Patient 3 (prior PEBD, PFIC1; PEDFIC 1 40 μg/kg/d, PEDFIC 2 120 μg/kg/d; 44 weeks exposure)) was “N”, the “sBA Responder?” value ([3]; Patient 4 (prior PEBD, PFIC1; PEDFIC 1 40 μg/kg/d, PEDFIC 2 120 μg/kg/d; 55 weeks exposure)) was “N” and the “sBA Responder?” value ([3]; Patient 5 (prior PEBD, PFIC2; 120 μg/kg/d in PEDFIC 1 and 2; 53 weeks exposure)) was “N”. For the same molecule, the “sBA Responder?” value ([3]; Patient 6 (prior PEBD, PFIC2; 120 μg/kg/d in PEDFIC 1 and 2; 44 weeks exposure)) was “N”, the “sBA Responder?” value ([3]; Patient 7 (prior PEBD, PFIC2; 120 μg/kg/d in PEDFIC 1 and 2; 54 weeks exposure, discontinued)) was “N” and the “sBA Responder?” value ([3]; Patient 8 (prior PEBD, PFIC1; 120 μg/kg/d in PEDFIC 1 and 2; 47 weeks exposure)) was “N”. The “sBA Responder?” value ([3]; Patient 9 (prior PEBD, PFIC1; PEDFIC 2 only, 120 μg/kg/d; 25 weeks exposure)) was “N”.
